PubChem BioAssay AID1918995 (Molecular Pharmacology Branch, DTP, NCI, 2023)
pIC50: −log10 of the molar value. “And” between values parts separate entries of the source, which are not always exact repeats. Identical values can stand only once. Each block holds one compound with its values, some of them ahead of it.

System: 324938-238-R-J1-PDC complex spheroid growth, % test/control
Assay: Anticancer human tumor 324938-238-R-J1-PDC patient-derived bladder carcinoma cell line growth inhibition [AhR]
Conditions: for viability, T/C: stronger effect = lower value
From the text: Multicellular complex tumor spheroid response to aryl hydrocarbon receptor antagonists in combination with a variety of drugs and investigational agents in selected tumor cell lines
The current study was undertaken to assess response to aryl hydrocarbon receptor antagonists in combination with standard-of-care drugs and investigational agents in solid tumor complex spheroid models. Complex spheroids include a stromal component modeled by human endothelial cells (HUVEC) and fibroblasts modeled by human mesenchymal stem cells (MSCs). The concentration ranges selected for each drug and investigational agent were based upon clinically achievable concentrations if the clinical Cmax of the agent was known.
Compounds. The drugs and investigational agents: BAY 2416964 (NSC825713), GNF351 (NSC835774), CH-223191 (NSC835775), CPI-455 (NSC825282), aza-TdCyd (NSC777586), decitabine (NSC127716), belinostat (NSC758774), entinostat (NSC756642), pevonedistat (NSC761192), tazemetostat (NSC777109), talazoparib (NSC765396), olaparib (NSC753686), selinexor (NSC780203), nedisertib (M3814, NSC802822), bortezomib (NSC756655), venetoclax (NSC766270), doxorubicin (NSC123127), elimusertib (BAY189344, NSC800525), ceralasertib (AZD6738, NSC777638), TAK-243 (NSC785004), alisertib (NSC759677), etoposide (NSC141540), topotecan (NSC609699), eribulin (NSC707389), gemcitabine (NSC613327), carboplatin (NSC241240), cisplatin (NSC119875), and SN-38 (NSC673596) were obtained from the National Cancer Institute (NCI) Developmental Therapeutics Program Chemical Repository (32). The FDA-approved anticancer drug set is available from the Developmental Therapeutics Program at https://dtp.cancer.gov/organization/dscb/obtaining/available plates.htm. […] The stock solutions were prepared in dimethyl sulfoxide (DMSO, Sigma-Aldrich, St. Louis, MO, cat. D2650), except for the platinum compounds which were prepared in saline (Quality Biological, Gaithersburg, MD, cat. 114-055-101), at 800-fold the tested concentration and stored at -70 degrees C prior to their use. All drugs and investigational agents were tested over a range starting from a high concentration at or near the clinical Cmax and decreasing in half-log increments. If the clinical Cmax for an agent had not been determined, the highest concentration tested was 10 microM (Table 1).
Cell Culture. All cells were maintained in an incubator at 37 degrees C and 5% CO2 with 95% humidity. The PDC lines were cultured according to standard operating procedures established by the NCI PDMR (https://pdmr.cancer.gov). Briefly, all PDCs were thawed and cultured in Matrigel-coated flasks prepared with a working solution of 1X Ham's F-12 nutrient mix, without supplementation (Invitrogen, Waltham, MA, cat. 11765054), 100 U/mL penicillin-streptomycin (Invitrogen, cat. 15140122), and 2.5% Matrigel (Corning Inc., Corning, NY, cat. 354248) for the first three passages. All PDCs were cultured in complete DMEM/F-12 media containing advanced DMEM/F-12 (Invitrogen, cat. 12634028), 4.9% defined fetal bovine serum, heat inactivated (HyClone Laboratories Inc., Logan, UT, cat. SH30070.03HI), 389 ng/mL hydrocortisone (Sigma-Aldrich, cat. H4001), 9.7 ng/mL human EGF recombinant protein (Invitrogen, cat. PHG0313), 23.4 microg/mL adenine (Sigma-Aldrich, cat. A2786), 97.3 U/mL penicillin-streptomycin (Invitrogen, cat. 15140122), 1.9 mM L-glutamine (Invitrogen, cat. 25030081), and 9.7 microM Y-27632 dihydrochloride (Tocris Bioscience, Bristol, United Kingdom, cat. 1254). The PDCs were cultured in complete DMEM/F12 media without 10 microM Y-27632 dihydrochloride for at least two passages prior to the screen. The established cell lines NCI-H1341 and […] were cultured in DMEM/F-12, HEPES (Invitrogen, cat. 11330032), 5% defined fetal bovine serum (HyClone Laboratories Inc., cat. SH30070.03), ITS premix universal culture supplement [insulin (5 microg/mL), transferrin (5 microg/mL), and selenious acid (5 ng/mL)] […]

[1] = curve of first compound, second compound 0.1 µM
[2] = curve of first compound, second compound 0.316 µM
[3] = curve of first compound, second compound 1 µM
[4] = curve of first compound, second compound 3.16 µM
[5] = curve of first compound, second compound 10 µM
[6] = second compound 0.1 µM, first compound 0.0316 µM
[7] = second compound 0.1 µM, first compound 0.1 µM
[8] = second compound 0.1 µM, first compound 0.316 µM
[9] = second compound 0.1 µM, first compound 1 µM
[10] = second compound 0.1 µM, first compound 3.16 µM
[11] = second compound 0.1 µM, first compound 10 µM
[12] = second compound 0.316 µM, first compound 0.0316 µM
[13] = second compound 0.316 µM, first compound 0.1 µM
[14] = second compound 0.316 µM, first compound 0.316 µM
[15] = second compound 0.316 µM, first compound 1 µM
[16] = second compound 0.316 µM, first compound 3.16 µM
[17] = second compound 0.316 µM, first compound 10 µM
[18] = second compound 1 µM, first compound 0.0316 µM
[19] = second compound 1 µM, first compound 0.1 µM
[20] = second compound 1 µM, first compound 0.316 µM
[21] = second compound 1 µM, first compound 1 µM
[22] = second compound 1 µM, first compound 3.16 µM
[23] = second compound 1 µM, first compound 10 µM
[24] = second compound 3.16 µM, first compound 0.0316 µM
[25] = second compound 3.16 µM, first compound 0.1 µM
[26] = second compound 3.16 µM, first compound 0.316 µM
[27] = second compound 3.16 µM, first compound 1 µM
[28] = second compound 3.16 µM, first compound 3.16 µM
[29] = second compound 3.16 µM, first compound 10 µM
[30] = second compound 10 µM, first compound 0.0316 µM
[31] = second compound 10 µM, first compound 0.1 µM
[32] = second compound 10 µM, first compound 0.316 µM
[33] = second compound 10 µM, first compound 1 µM
[34] = second compound 10 µM, first compound 3.16 µM
[35] = second compound 10 µM, first compound 10 µM
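Note: spheroids exposed to agents for seven days before viability read.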

Compound: COc1cc(C2c3cc4c(cc3C(OC3OC5COC(C)OC5C(O)C3O)C3COC(=O)C23)OCO4)cc(OC)c1O (stereo not drawn)
viability, T/C (compound 0.0316 µM): 118% and 99.2% and 96.2%
viability, T/C (compound 0.1 µM): 101% and 103% and 86.9%
viability, T/C (compound 0.316 µM): 113% and 51.8% and 53%
viability, T/C (compound 1 µM): 97% and 31.6% and 32.9%
viability, T/C (compound 3.16 µM): 78.7% and 31.4% and 29.9%
viability, T/C (compound 10 µM): 95.9% and 19% and 20%

Compound: CC(C)CC(NC(=O)C(Cc1ccccc1)NC(=O)c1cnccn1)B(O)O (stereo not drawn)
viability, T/C (compound 0.000949 µM): 87.9% and 116% and 93.5%
viability, T/C (compound 0.003 µM): 85.2% and 98.1% and 15.2%
viability, T/C (compound 0.00949 µM): 0.63% and 1.24% and 0.3%
viability, T/C (compound 0.03 µM): 0.28% and 0.36% and 0.27%
viability, T/C (compound 0.0949 µM): 0.78% and 0.3% and 0.27%
viability, T/C (compound 0.3 µM): 0.76% and 0.41% and 0.31%
pIC50 (curve of compound): 8.32 and 8.27 and 8.74

Compound: Nc1ccn(C2OC(CO)C(O)C2(F)F)c(=O)n1 (stereo not drawn)
viability, T/C (compound 0.0316 µM): 68.2% and 32.2% and 53.2%
viability, T/C (compound 0.1 µM): 98.7% and 26% and 26.2%
viability, T/C (compound 0.316 µM): 79.8% and 18.3% and 16.4%
viability, T/C (compound 1 µM): 79.5% and 19.9% and 15.4%
viability, T/C (compound 3.16 µM): 87.5% and 17.6% and 11.5%
viability, T/C (compound 10 µM): 87.3% and 11.4% and 10.1%

Compound: CC(C)c1c(-c2ccccc2)nc2c(C#N)c[nH]n2c1=O
viability, T/C (compound 0.0316 µM): 136% and 101% and 102%
viability, T/C (compound 0.1 µM): 74.3% and 108% and 99%
viability, T/C (compound 0.316 µM): 70.3% and 96.4% and 99.4%
viability, T/C (compound 1 µM): 80.5% and 97.2% and 86.3%
viability, T/C (compound 3.16 µM): 181% and 93.4% and 97.5%
viability, T/C (compound 10 µM): 99.3% and 77.3% and 90.8%
pIC50 (curve of compound): < 5.00

Further lines, with some results ahead:

pIC50 [1]: 5.44
pIC50 [2]: 5.44
pIC50 [3]: 5.52
pIC50 [4]: 5.43
pIC50 [5]: > 7.50
Compound: O=C(C=Cc1cccc(S(=O)(=O)Nc2ccccc2)c1)NO + Cc1cncc(-c2nc(NCCc3c[nH]c4ccccc34)c3ncn(C(C)C)c3n2)c1
viability, T/C [6]: 121%
viability, T/C [7]: 130%
viability, T/C [8]: 95.4%
viability, T/C [9]: 104%
viability, T/C [10]: 53.5%
viability, T/C [11]: 1.77%
viability, T/C [12]: 101%
viability, T/C [13]: 106%
viability, T/C [14]: 95.3%
viability, T/C [15]: 92.7%
viability, T/C [16]: 56.2%
viability, T/C [17]: 2.06%
viability, T/C [18]: 112%
viability, T/C [19]: 122%
viability, T/C [20]: 96.5%
viability, T/C [21]: 95.2%
viability, T/C [22]: 46.6%
viability, T/C [23]: 3.32%
viability, T/C [24]: 133%
viability, T/C [25]: 109%
viability, T/C [26]: 125%
viability, T/C [27]: 87.7%
viability, T/C [28]: 60%
viability, T/C [29]: 0.96%
viability, T/C [30]: 9.41%
viability, T/C [31]: 28.3%
viability, T/C [32]: 40%
viability, T/C [33]: 63%
viability, T/C [34]: 61.8%
viability, T/C [35]: 0.41%

pIC50 [1]: > 7.50
pIC50 [2]: > 7.50
pIC50 [3]: > 7.50
pIC50 [4]: > 7.50
pIC50 [5]: 7.41
Compound: Nc1ccn(C2OC(CO)C(O)C2(F)F)c(=O)n1 (stereo not drawn) + CC(CO)NC(=O)c1cc(-c2ccc(Cl)cc2)nn(-c2cnn(C)c2)c1=O
viability, T/C [6]: 36.8%
viability, T/C [7]: 24.1%
viability, T/C [8]: 18.3%
viability, T/C [9]: 17.9%
viability, T/C [10]: 15.3%
viability, T/C [11]: 12.3%
viability, T/C [12]: 34.3%
viability, T/C [13]: 27.3%
viability, T/C [14]: 21.7%
viability, T/C [15]: 18.6%
viability, T/C [16]: 16%
viability, T/C [17]: 11.6%
viability, T/C [18]: 39%
viability, T/C [19]: 30.7%
viability, T/C [20]: 20.2%
viability, T/C [21]: 19.9%
viability, T/C [22]: 17.6%
viability, T/C [23]: 12.9%
viability, T/C [24]: 43.2%
viability, T/C [25]: 38.6%
viability, T/C [26]: 19.3%
viability, T/C [27]: 19.8%
viability, T/C [28]: 18.9%
viability, T/C [29]: 11.8%
viability, T/C [30]: 51.3%
viability, T/C [31]: 43.1%
viability, T/C [32]: 24.9%
viability, T/C [33]: 21.4%
viability, T/C [34]: 19.1%
viability, T/C [35]: 14.2%

pIC50 [1]: < 5.00
pIC50 [2]: < 5.00
pIC50 [3]: < 5.00
pIC50 [4]: < 5.00
pIC50 [5]: < 5.00
Compound: CC(C)c1c(-c2ccccc2)nc2c(C#N)c[nH]n2c1=O + Cc1ccccc1N=Nc1ccc(NC(=O)c2ccnn2C)c(C)c1
viability, T/C [6]: 101%
viability, T/C [7]: 91.3%
viability, T/C [8]: 95.5%
viability, T/C [9]: 83.9%
viability, T/C [10]: 92.1%
viability, T/C [11]: 73.9%
viability, T/C [12]: 87.3%
viability, T/C [13]: 92.9%
viability, T/C [14]: 90.7%
viability, T/C [15]: 81.6%
viability, T/C [16]: 75.3%
viability, T/C [17]: 68%
viability, T/C [18]: 80.1%
viability, T/C [19]: 91.8%
viability, T/C [20]: 76%
viability, T/C [21]: 80.5%
viability, T/C [22]: 68.3%
viability, T/C [23]: 65.8%
viability, T/C [24]: 80.1%
viability, T/C [25]: 81.4%
viability, T/C [26]: 64.9%
viability, T/C [27]: 67.5%
viability, T/C [28]: 65.7%
viability, T/C [29]: 56%
viability, T/C [30]: 70.8%
viability, T/C [31]: 75.2%
viability, T/C [32]: 79.4%
viability, T/C [33]: 65.1%
viability, T/C [34]: 54.4%
viability, T/C [35]: 61%

pIC50 (curve of compound): < 7.00 and 7.67 and 7.70
Compound: CC[C@@]1(O)C(=O)OCc2c1cc1n(c2=O)Cc2cc3c(CN(C)C)c(O)ccc3nc2-1
viability, T/C (compound 0.000316 µM): 96% and 93.1% and 103%
viability, T/C (compound 0.001 µM): 96.2% and 106% and 108%
viability, T/C (compound 0.00316 µM): 66.5% and 84.8% and 87.8%
viability, T/C (compound 0.01 µM): 82.1% and 74.2% and 73.3%
viability, T/C (compound 0.0316 µM): 125% and 37.5% and 35.2%
viability, T/C (compound 0.1 µM): 106% and 17.9% and 16.8%
